{"source": "patent US7977327B2", "about": "“Substituted pyrrolidine derivative” (Daiichi Sankyo Company, Limited, priority 2004, dated 2011)", "key": {"E. faevcalis ATCC 19433": {"tested_on": "E. faevcalis ATCC 19433", "experiment": "Antibacterial activity (MIC), standard method of the Japan Society of Chemotherapy", "format": "cell-based", "method": "(§1) The antimicrobial activities of the compounds of the present invention were determined according to a standard method designated by the Japan Society of Chemotherapy. The results are expressed by MIC (μg/mL) (Table 1). In Table 1, S. aureus 870307 and S. pneumonia J24 are quinolone-resistant bacteria."}, "S. flexneri 2A 5503": {"tested_on": "S. flexneri 2A 5503", "experiment": "Antibacterial activity (MIC), standard method of the Japan Society of Chemotherapy", "format": "cell-based", "method": "as §1"}, "E. coli NIHJ": {"tested_on": "E. coli NIHJ", "experiment": "Antibacterial activity (MIC), standard method of the Japan Society of Chemotherapy", "format": "cell-based", "method": "as §1"}, "S. maltophilia IID 1275": {"tested_on": "S. maltophilia IID 1275", "experiment": "Antibacterial activity (MIC), standard method of the Japan Society of Chemotherapy", "format": "cell-based", "method": "as §1"}, "S. pneumoniae J24": {"tested_on": "S. pneumoniae J24", "experiment": "Antibacterial activity (MIC), standard method of the Japan Society of Chemotherapy", "format": "cell-based", "method": "as §1"}, "S. pyogenes G-36": {"tested_on": "S. pyogenes G-36", "experiment": "Antibacterial activity (MIC), standard method of the Japan Society of Chemotherapy", "format": "cell-based", "method": "as §1"}, "K. pneumoniae TYPE I": {"tested_on": "K. pneumoniae TYPE I", "experiment": "Antibacterial activity (MIC), standard method of the Japan Society of Chemotherapy", "format": "cell-based", "method": "as §1"}, "S. aureus 870307": {"tested_on": "S. aureus 870307", "experiment": "Antibacterial activity (MIC), standard method of the Japan Society of Chemotherapy", "format": "cell-based", "method": "as §1"}, "P. Vulgalis 08601": {"tested_on": "P. Vulgalis 08601", "experiment": "Antibacterial activity (MIC), standard method of the Japan Society of Chemotherapy", "format": "cell-based", "method": "as §1"}, "P. aeruginosa 32121": {"tested_on": "P. aeruginosa 32121", "experiment": "Antibacterial activity (MIC), standard method of the Japan Society of Chemotherapy", "format": "cell-based", "method": "as §1"}, "P. aeruginosa 32104": {"tested_on": "P. aeruginosa 32104", "experiment": "Antibacterial activity (MIC), standard method of the Japan Society of Chemotherapy", "format": "cell-based", "method": "as §1"}, "S. epidermidis 56500": {"tested_on": "S. epidermidis 56500", "experiment": "Antibacterial activity (MIC), standard method of the Japan Society of Chemotherapy", "format": "cell-based", "method": "as §1"}, "S. marcescens 10100": {"tested_on": "S. marcescens 10100", "experiment": "Antibacterial activity (MIC), standard method of the Japan Society of Chemotherapy", "format": "cell-based", "method": "as §1"}, "S. aureus FDA 209P": {"tested_on": "S. aureus FDA 209P", "experiment": "Antibacterial activity (MIC), standard method of the Japan Society of Chemotherapy", "format": "cell-based", "method": "as §1"}, "[1]": {"tested_on": "Chinese hamster lung (CHL/IU) cells", "experiment": "Effect of inducing chromosomal aberration", "format": "cell-based", "conditions": "for Percentile induction of structural aberration (TA %): 24 hours", "method": "From each sample solution, samples to be tested having a concentration of 1, 3, 10, 30, 50, and 100 μg/mL (as reduced to free form) were prepared. As a negative control, 0.1 mol/L NaOH was employed.\nChinese hamster lung (CHL/IU) cells in logarithmic growth phase were employed. The cells were treated in a culture solution containing each sample to be tested for 24 hours. Subsequently, a chromosome specimen was prepared from the thus-treated cells. The culture solution employed was an Eagle's MEM (product of NISSUI PHARMACEUTICAL CO., LTD.) medium containing 15% fetal bovine serum (15% FBS-MEM).\nIn each sample concentration, 100 cells during metaphase were observed, to thereby record types and numbers of the chromosomal aberration."}}, "note": "Counter-ions that a name gives are not always drawn. Like-named read-outs stand apart in the source and are kept apart here. Marks after values point to notes of the source that are not given here."}
{"compound": "CCC[C@H]1CN(c2c(F)cc3c(=O)c(C(=O)O)cn4c3c2OC[C@@H]4C)C[C@H]1N", "note": "(as salt: hydrochloride)", "values": [{"measurement": "melting point", "value": "225 to 231", "unit": "°C"}]}
{"compound": "CCC[C@H]1CN(c2c(F)cc3c(=O)c(C(=O)O)cn([C@@H]4C[C@@H]4F)c3c2C)C[C@H]1N", "note": "(as salt: hydrochloride) [Compound No. 5, 7-[(3S,4S)-3-Amino-4-propylpyrrolidin-1-yl]-6-fluoro-1-[(1R,2S)-2-fluorocyclopropyl]-8-methyl-1,4-dihydro-4-oxoquinoline-3-carboxylic acid-hydrochloride]", "values": [{"measurement": "melting point", "value": "197 to 207", "unit": "°C"}]}
{"compound": "O=C(O)c1cn(C2CC2)c2cc(N3CCNCC3)c(F)cc2c1=O", "note": "[CPFX, reference compound]", "values": [{"measurement": "MIC", "setting": "E. faevcalis ATCC 19433; E. faevcalis ATCC 19433", "value": 0.78, "unit": "µg/mL"}, {"measurement": "MIC", "setting": "S. flexneri 2A 5503", "value": 0.006, "unit": "µg/mL"}, {"measurement": "MIC", "setting": "E. coli NIHJ; E. coli NIHJ", "value": "≦0.003 μg/mL"}, {"measurement": "MIC", "setting": "S. maltophilia IID 1275; S. maltophilia IID 1275", "value": 0.78, "unit": "µg/mL"}, {"measurement": "MIC", "setting": "S. pneumoniae J24; S. pneumoniae J24, quinolone-resistant", "value": 0.39, "unit": "µg/mL"}, {"measurement": "MIC", "setting": "S. pyogenes G-36; S. pyogenes G-36", "value": 1.56, "unit": "µg/mL"}, {"measurement": "MIC", "setting": "K. pneumoniae TYPE I; K. pneumoniae TYPE I", "value": 0.025, "unit": "µg/mL"}, {"measurement": "MIC", "setting": "S. aureus 870307; S. aureus 870307, quinolone-resistant", "value": ">6.25", "unit": "µg/mL"}, {"measurement": "MIC", "setting": "P. Vulgalis 08601; P. Vulgalis 08601", "value": "≦0.003 μg/mL"}, {"measurement": "MIC", "setting": "P. aeruginosa 32121; P. aeruginosa 32121", "value": 0.025, "unit": "µg/mL"}, {"measurement": "MIC", "setting": "P. aeruginosa 32104; P. aeruginosa 32104", "value": 0.05, "unit": "µg/mL"}, {"measurement": "MIC", "setting": "S. epidermidis 56500; S. epidermidis 56500", "value": 0.2, "unit": "µg/mL"}, {"measurement": "MIC", "setting": "S. marcescens 10100; S. marcescens 10100", "value": 0.025, "unit": "µg/mL"}, {"measurement": "MIC", "setting": "S. aureus FDA 209P; S. aureus FDA 209P", "value": 0.1, "unit": "µg/mL"}]}
{"compound": "CC[C@H]1CN(c2c(F)cc3c(=O)c(C(=O)O)cn(C4CC4)c3c2C)C[C@H]1N", "note": "[Comparative Compound D, 7-[(3S,4S)-3-Amino-4-ethylpyrrolidine-1-yl]-1-cyclopropyl-6-fluoro-8-methyl-1,4-dihydro-4-oxoquinoline-3-carboxylic acid, reference compound]", "values": [{"measurement": "Percentile induction of structural aberration (TA %)", "setting": "[1]; 1 μg/mL, CHL/IU cells", "value": 4, "unit": "%"}, {"measurement": "Percentile induction of structural aberration (TA %)", "setting": "[1]; 3 μg/mL, CHL/IU cells", "value": 0, "unit": "%"}, {"measurement": "Percentile induction of structural aberration (TA %)", "setting": "[1]; 10 μg/mL, CHL/IU cells", "value": 3, "unit": "%"}, {"measurement": "Percentile induction of structural aberration (TA %)", "setting": "[1]; 30 μg/mL, CHL/IU cells", "value": "63* %"}, {"measurement": "Percentile induction of structural aberration (TA %)", "setting": "[1]; 50 μg/mL, CHL/IU cells", "value": "98* %"}, {"measurement": "Percentile induction of structural aberration (TA %)", "setting": "[1]; 100 μg/mL, CHL/IU cells", "value": "100* %"}]}
{"compound": "CC[C@H]1CN(c2c(F)c(N)c3c(=O)c(C(=O)O)cn(C4CC4)c3c2C)C[C@H]1N", "note": "[Comparative Compound E, 5-amino-7-[(3S,4S)-3-amino-4-ethyl-1-pyrrolidinyl]-1-cyclopropyl-6-fluoro-1,4-dihydro-8-methyl-4-oxoquinoline-3-carboxylic acid, reference compound]", "values": [{"measurement": "Percentile induction of structural aberration (TA %)", "setting": "[1]; 1 μg/mL, CHL/IU cells", "value": 0, "unit": "%"}, {"measurement": "Percentile induction of structural aberration (TA %)", "setting": "[1]; 3 μg/mL, CHL/IU cells", "value": 3, "unit": "%"}, {"measurement": "Percentile induction of structural aberration (TA %)", "setting": "[1]; 10 μg/mL, CHL/IU cells", "value": 1, "unit": "%"}, {"measurement": "Percentile induction of structural aberration (TA %)", "setting": "[1]; 30 μg/mL, CHL/IU cells", "value": 6, "unit": "%"}, {"measurement": "Percentile induction of structural aberration (TA %)", "setting": "[1]; 50 μg/mL, CHL/IU cells", "value": "TOX*^1"}, {"measurement": "Percentile induction of structural aberration (TA %)", "setting": "[1]; 100 μg/mL, CHL/IU cells", "value": "TOX*^1"}, {"measurement": "Concentration at which C-mitosis and ski-pair-like chromosomes are observed considerably", "setting": "[1]; CHL/IU cells", "value": "≥ 50", "unit": "µg/mL"}, {"measurement": "Significant increase in number of the cells exhibiting chromosomal aberration", "setting": "[1]; at a concentration of up to 30 μg/mL", "value": "not observed"}]}
{"compound": "CCC[C@H]1CN(c2c(F)cc3c(=O)c(C(=O)O)cn([C@@H]4C[C@@H]4F)c3c2OC)C[C@H]1N", "note": "[Compound No. 4, 7-[(3S,4S)-3-Amino-4-propylpyrrolidin-1-yl]-6-fluoro-1-[(1R,2S)-2-fluorocyclopropyl]-8-methoxy-1,4-dihydro-4-oxoquinoline-3-carboxylic acid]", "values": [{"measurement": "melting point", "value": "79 to 83", "unit": "°C"}]}
{"compound": "CCC[C@H]1CN(c2c(F)cc3c(=O)c(C(=O)O)cn([C@@H]4C[C@@H]4F)c3c2C)C[C@H]1N", "note": "[Compound No. 5, 7-[(3S,4S)-3-Amino-4-propylpyrrolidin-1-yl]-6-fluoro-1-[(1R,2S)-2-fluorocyclopropyl]-8-methyl-1,4-dihydro-4-oxoquinoline-3-carboxylic acid-hydrochloride]", "values": [{"measurement": "MIC", "setting": "E. faevcalis ATCC 19433", "value": 0.1, "unit": "µg/mL"}, {"measurement": "MIC", "setting": "S. flexneri 2A 5503; Shigella flexneri, 2A5503, read-out: MIC", "value": 0.006, "unit": "µg/mL"}, {"measurement": "MIC", "setting": "E. coli NIHJ; Escherichia coli", "value": 0.006, "unit": "µg/mL"}, {"measurement": "MIC", "setting": "S. maltophilia IID 1275; Stenotrophomonas maltophilia, IID1275", "value": 0.05, "unit": "µg/mL"}, {"measurement": "MIC", "setting": "S. pneumoniae J24; Streptococcus pneumoniae, J24", "value": 0.025, "unit": "µg/mL"}, {"measurement": "MIC", "setting": "S. pyogenes G-36; Streptococcus pyogenes, G36", "value": 0.025, "unit": "µg/mL"}, {"measurement": "MIC", "setting": "K. pneumoniae TYPE I; Klebsiella pneumoniae", "value": 0.025, "unit": "µg/mL"}, {"measurement": "MIC", "setting": "S. aureus 870307; Staphylococcus aureus, 870307", "value": 0.2, "unit": "µg/mL"}, {"measurement": "MIC", "setting": "P. Vulgalis 08601", "value": 0.012, "unit": "µg/mL"}, {"measurement": "MIC", "setting": "P. aeruginosa 32121; Pseudomonas aeruginosa, 32121", "value": 0.1, "unit": "µg/mL"}, {"measurement": "MIC", "setting": "P. aeruginosa 32104; Pseudomonas aeruginosa, 32104", "value": 0.2, "unit": "µg/mL"}, {"measurement": "MIC", "setting": "S. epidermidis 56500; Staphylococcus epidermidis, 56500", "value": 0.025, "unit": "µg/mL"}, {"measurement": "MIC", "setting": "S. marcescens 10100; Serratia marcescens, 10100", "value": 0.05, "unit": "µg/mL"}, {"measurement": "MIC", "setting": "S. aureus FDA 209P; Staphylococcus aureus, FDA209P", "value": 0.006, "unit": "µg/mL"}]}
{"compound": "C=C[C@H]1CN(c2c(F)cc3c(=O)c(C(=O)O)cn4c3c2OC[C@@H]4C)C[C@H]1N", "note": "[Compound No. 7, (3S)-10-[(3S,4S)-3-Amino-4-vinyl-1-pyrrolidinyl]-9-fluoro-2,3-dihydro-3-methyl-7-oxo-7H-pyrido[1,2,3-de][1,4]benzoxazine-6-carboxylic acid]", "values": [{"measurement": "melting point", "value": "238 to 240", "unit": "°C"}]}
